From ChEMBL document CHEMBL1201862, “PubChem BioAssay data set” (2004)
Active and inactive are the calls of the source.

Experiments:
[1] = Late stage assay provider results from the probe development effort to identify selective inhibitors of heat shock protein 90 (HSP90): Absorbance-based cell proliferation assay in MCF7 cells.; format: functional
[2] = Late stage assay provider results from the probe development effort to identify selective inhibitors of heat shock protein 90 (HSP90): Absorbance-based cell proliferation assay in SKBR3 cells.; format: functional; conditions: SK-BR-3
[3] = MITF: Counter assay: A375 proliferation Measured in Cell-Based System Using Plate Reader - 2084-03_Inhibitor_Dose_DryPowder_Activity_Set8.; format: functional; conditions: A-375
[4] = MITF Orthogonal Assay: SK-MEL-5 CTG Assay Measured in Cell-Based System Using Plate Reader - 2084-02_Inhibitor_Dose_DryPowder_Activity_Set7.; format: functional
[5] = TRPM1 promoter luciferase reporter signal decrease, dose response, MITF inhibitor project, cell-based, SK-MEL-5, dry powder, set 8 (AID 624430); format: functional
[6] = molecular target: T1, Apoptotic protease-activating factor 1 (Homo sapiens, UniProt O14727); format: functional
T1 sequence (O14727 whole entry): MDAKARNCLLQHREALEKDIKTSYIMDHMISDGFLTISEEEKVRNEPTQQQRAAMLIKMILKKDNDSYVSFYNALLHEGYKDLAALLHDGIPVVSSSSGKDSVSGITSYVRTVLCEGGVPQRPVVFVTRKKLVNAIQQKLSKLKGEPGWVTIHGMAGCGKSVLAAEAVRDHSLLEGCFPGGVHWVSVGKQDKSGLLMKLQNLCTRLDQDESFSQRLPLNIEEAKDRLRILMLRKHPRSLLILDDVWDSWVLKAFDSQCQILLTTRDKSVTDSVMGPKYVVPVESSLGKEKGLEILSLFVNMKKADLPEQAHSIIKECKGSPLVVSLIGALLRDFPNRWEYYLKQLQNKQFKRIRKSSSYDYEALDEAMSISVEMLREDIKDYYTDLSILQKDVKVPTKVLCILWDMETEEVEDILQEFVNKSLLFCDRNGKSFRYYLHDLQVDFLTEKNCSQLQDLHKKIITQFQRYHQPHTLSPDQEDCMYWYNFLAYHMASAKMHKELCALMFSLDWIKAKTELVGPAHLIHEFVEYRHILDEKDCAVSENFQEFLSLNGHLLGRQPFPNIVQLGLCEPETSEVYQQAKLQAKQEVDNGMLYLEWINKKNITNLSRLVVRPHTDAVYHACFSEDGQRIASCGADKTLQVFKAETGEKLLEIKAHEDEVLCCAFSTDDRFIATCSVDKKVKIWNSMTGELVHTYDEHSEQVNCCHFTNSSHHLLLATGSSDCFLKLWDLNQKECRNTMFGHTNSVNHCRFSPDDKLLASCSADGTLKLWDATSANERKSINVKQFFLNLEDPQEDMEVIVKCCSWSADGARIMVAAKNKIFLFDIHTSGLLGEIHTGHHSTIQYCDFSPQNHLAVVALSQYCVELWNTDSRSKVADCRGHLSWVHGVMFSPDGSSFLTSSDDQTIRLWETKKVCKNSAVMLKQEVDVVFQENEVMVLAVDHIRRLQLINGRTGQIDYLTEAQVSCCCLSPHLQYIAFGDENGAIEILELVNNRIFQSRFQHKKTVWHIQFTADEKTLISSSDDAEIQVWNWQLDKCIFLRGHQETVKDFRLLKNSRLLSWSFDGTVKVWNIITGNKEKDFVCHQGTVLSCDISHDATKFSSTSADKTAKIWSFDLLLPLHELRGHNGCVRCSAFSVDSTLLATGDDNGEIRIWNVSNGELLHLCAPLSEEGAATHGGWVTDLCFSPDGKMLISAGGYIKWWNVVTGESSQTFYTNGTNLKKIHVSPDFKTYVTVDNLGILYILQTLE

[7] = molecular target: T2, Heat shock factor protein 1 (Mus musculus, UniProt P38532); experiment: HSF1 potentiators in luciferase reporter cells, confirmation, cell-based, NIH3T3, luminescence, dose retest (AID 435004); format: functional;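 also: stress induced by proteasome inhibitor MG132 added 30 min after compound; luciferase reporter driven by HSF1 response element in NIH3T3 cells; actives raise luminescence as potentiators of the MG132 stress response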
T2 sequence (P38532 whole entry): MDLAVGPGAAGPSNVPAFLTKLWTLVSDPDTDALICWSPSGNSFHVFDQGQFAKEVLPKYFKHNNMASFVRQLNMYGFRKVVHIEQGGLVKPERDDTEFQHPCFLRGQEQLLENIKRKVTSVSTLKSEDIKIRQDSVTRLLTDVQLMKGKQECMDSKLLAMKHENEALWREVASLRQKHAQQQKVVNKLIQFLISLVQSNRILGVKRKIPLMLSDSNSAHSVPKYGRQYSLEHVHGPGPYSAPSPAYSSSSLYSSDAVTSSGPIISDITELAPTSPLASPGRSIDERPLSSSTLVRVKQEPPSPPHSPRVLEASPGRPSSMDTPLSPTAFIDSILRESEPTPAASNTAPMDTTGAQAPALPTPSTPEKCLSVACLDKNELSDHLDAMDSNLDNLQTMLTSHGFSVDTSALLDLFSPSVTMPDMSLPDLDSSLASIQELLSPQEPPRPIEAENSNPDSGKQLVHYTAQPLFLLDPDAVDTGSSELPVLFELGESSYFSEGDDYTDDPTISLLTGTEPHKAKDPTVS

[8] = molecular target: T3, Replicative DNA helicase DnaB (Mycobacterium tuberculosis, UniProt P9WMR3); experiment: DnaB intein splicing inhibitors, dose response, biochemical, cell-free fluorescence (AID 449749); format: functional
T3 sequence (P9WMR3 whole entry): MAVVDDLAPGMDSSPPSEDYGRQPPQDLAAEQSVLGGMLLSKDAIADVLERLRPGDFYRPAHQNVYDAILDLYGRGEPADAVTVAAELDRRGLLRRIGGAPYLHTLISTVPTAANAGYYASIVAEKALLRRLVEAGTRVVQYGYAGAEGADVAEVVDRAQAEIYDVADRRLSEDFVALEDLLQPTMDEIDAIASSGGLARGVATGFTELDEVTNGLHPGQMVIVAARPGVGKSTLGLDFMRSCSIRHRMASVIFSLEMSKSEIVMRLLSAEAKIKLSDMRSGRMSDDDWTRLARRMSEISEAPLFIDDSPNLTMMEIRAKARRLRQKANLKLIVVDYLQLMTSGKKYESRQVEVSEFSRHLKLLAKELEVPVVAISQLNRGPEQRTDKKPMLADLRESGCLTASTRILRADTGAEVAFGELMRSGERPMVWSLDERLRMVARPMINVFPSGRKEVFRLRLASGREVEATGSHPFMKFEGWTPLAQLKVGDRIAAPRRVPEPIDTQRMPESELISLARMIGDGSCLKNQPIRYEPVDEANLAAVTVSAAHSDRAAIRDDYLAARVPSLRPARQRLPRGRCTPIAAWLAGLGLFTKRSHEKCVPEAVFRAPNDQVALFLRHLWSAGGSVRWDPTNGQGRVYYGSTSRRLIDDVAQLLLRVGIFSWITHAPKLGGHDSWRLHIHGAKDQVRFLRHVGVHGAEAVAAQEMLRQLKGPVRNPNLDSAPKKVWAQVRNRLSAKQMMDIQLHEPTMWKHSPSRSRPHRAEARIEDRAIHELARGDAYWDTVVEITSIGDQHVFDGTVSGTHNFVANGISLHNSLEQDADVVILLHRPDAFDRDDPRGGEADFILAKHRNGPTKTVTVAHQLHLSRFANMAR

[9] = test system: INS1; experiment: beta cell apoptosis inhibitors, cytokine rescue, dose response, luminescence, retest (AID 449756); format: functional, cell-based; conditions: Rattus norvegicus;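 also: cell death triggered by IL-1 beta plus TNF-alpha plus IFN-gamma mixture; protective hits raise ATP signal compared with cytokine alone wells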
[10] = molecular target: T4, Protein RecA (Mycobacterium tuberculosis, UniProt P9WHJ3); experiment: Fluorescence Cell-Free Homogeneous Dose Retest to Identify Inhibitors of RecA-Intein Splicing Activity. [Related pubchem assays (depositor defined):AID2097, AID2223, AID489010, AID492950]; format: functional
T4 sequence (P9WHJ3 whole entry): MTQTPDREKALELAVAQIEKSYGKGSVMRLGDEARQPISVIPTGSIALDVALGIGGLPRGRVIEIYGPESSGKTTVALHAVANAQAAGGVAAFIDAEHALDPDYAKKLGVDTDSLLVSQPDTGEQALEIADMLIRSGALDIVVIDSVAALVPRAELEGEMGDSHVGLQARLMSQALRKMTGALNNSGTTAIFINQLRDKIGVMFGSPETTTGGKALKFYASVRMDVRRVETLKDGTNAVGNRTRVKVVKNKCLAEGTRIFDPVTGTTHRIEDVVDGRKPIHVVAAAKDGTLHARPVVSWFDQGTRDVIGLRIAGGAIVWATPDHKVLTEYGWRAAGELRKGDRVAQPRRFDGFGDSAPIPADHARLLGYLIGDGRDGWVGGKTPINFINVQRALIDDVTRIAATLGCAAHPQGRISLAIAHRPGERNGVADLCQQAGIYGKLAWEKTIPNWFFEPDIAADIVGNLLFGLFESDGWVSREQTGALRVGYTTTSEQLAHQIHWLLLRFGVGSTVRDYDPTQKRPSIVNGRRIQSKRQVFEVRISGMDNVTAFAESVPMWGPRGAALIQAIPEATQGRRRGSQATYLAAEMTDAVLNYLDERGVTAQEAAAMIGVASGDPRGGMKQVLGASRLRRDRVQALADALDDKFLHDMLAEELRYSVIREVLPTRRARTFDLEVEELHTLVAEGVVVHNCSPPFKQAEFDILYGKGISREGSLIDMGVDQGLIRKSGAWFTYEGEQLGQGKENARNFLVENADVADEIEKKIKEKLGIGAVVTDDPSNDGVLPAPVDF

[11] = molecular target: Tyrosyl-DNA phosphodiesterase 2 (Homo sapiens, UniProt O95551); experiment: human TDP2 enzyme inhibitors, dose response, biochemical, epi absorbance, IC50 (AID 743297)
[12] = HEK293T cytotoxicity, dose response, cytotoxicity control for miR-122 modulator project, cell-based, inhibitor set, cherry-pick, set 2 (AID 720697); format: functional
[13] = molecular target: T5, Type-1 angiotensin II receptor (Homo sapiens, UniProt P30556); experiment: AT1 receptor antagonists, dose response, selectivity assay for APJ receptor antagonist project, cell-based, uHTS hits (AID 463214); format: functional;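 also: antagonist potency against angiotensin II stimulated AT1 response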
T5 sequence (P30556 whole entry): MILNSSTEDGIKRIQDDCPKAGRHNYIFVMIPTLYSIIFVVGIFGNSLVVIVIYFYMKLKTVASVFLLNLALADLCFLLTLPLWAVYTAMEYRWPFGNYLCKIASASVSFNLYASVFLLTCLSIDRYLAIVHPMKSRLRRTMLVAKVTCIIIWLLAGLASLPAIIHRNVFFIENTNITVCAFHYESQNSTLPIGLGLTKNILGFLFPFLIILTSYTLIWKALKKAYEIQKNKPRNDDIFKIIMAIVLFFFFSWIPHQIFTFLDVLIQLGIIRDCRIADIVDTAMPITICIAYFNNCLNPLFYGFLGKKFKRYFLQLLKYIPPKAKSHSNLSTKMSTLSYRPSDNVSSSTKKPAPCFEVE

[14] = molecular target: Photoreceptor-specific nuclear receptor (Homo sapiens, UniProt Q9Y5X4); format: functional, cell-based;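 also: CHO-S cells with Gal4-NCOR and VP16-NR2E3 two-hybrid luciferase reporter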
[15] = test system: Streptococcus sp. 'group A'; experiment: growth inhibition of control SK(-) GAS strain, dose response, counter-screen for streptokinase expression inhibitor project, luminescence, kanamycin, BacTiterGlo, confirmation (AID 1900); format: functional, organism-based
[16] = molecular target: T6, Kappa-type opioid receptor (Homo sapiens, UniProt P41145); format: functional
[17] = test system: BJ; experiment: cells; format: functional, cell-based; conditions: Homo sapiens
[18] = molecular target: Nonstructural protein 1 (Influenza A virus, UniProt Q194T2); format: functional, Influenza A virus (A/California/07/2009(H1N1))
[19] = test system: BJ; experiment: cytotoxicity toward Ras-transformed BJeLR fibroblasts, dose response, cell-based, alamar blue fluorescence, cherrypicked samples (AID 2631); format: functional; conditions: Homo sapiens;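 also: confirmatory dose-response assay in RAS-dependent BJ fibroblasts engineered with TERT, LT and ST, with cytotoxicity read by fluorescence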
[20] = molecular target: Heat shock protein HSP 90-alpha (Homo sapiens, UniProt P07900); format: functional, organism-based
[21] = test system: Streptococcus; experiment: Group A Streptococcus viability loss, dose response, counter-screen for streptokinase expression inhibitor project, luminescence, BacTiterGlo (AID 1915); format: functional, organism-based;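 also: potency for reduction of bacterial viability or growth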
[22] = cells; format: functional, cell-based
[23] = molecular target: T7, Beta-galactosidase (Escherichia coli, UniProt Q8VNN2); format: functional
[24] = cells; format: functional, cell-based; remark: listed apart in the source
[25] = molecular target: T7, Beta-galactosidase; experiment: PubChem AID 485352; format: functional
[26] = molecular target: T6, Kappa-type opioid receptor; format: functional; remark: listed apart in the source
[27] = cytotoxicity toward DRD oncogenic fibroblasts, dose response, cell-based, non-viral oncogenic, luminescence (AID 1934); format: functional; conditions: Homo sapiens
[28] = test system: BJ; experiment: cytotoxicity toward BJ-TERT-LT-ST fibroblasts, dose response, cell-based, RAS-independent, luminescence (AID 1935); format: functional; conditions: Homo sapiens;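 also: BJ fibroblasts immortalized with TERT plus LT and ST oncogenes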
[29] = miR-122 activators in hepatoma reporter cells, dose response, cell-based, Huh7 psiCHECK-miR122, Renilla luciferase, cherry-picked (AID 651956); format: functional;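 also: huh7 hepatoma cells stably carrying a psiCHECK-2 miR-122 sensor plasmid; renilla luciferase signal reporting endogenous miR-122 activity after 48 h compound exposure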
[30] = test system: BJ; experiment: cytotoxicity toward BJ-TERT fibroblasts, dose response, cell-based, RAS-independent, luminescence (AID 1933); format: functional; conditions: Homo sapiens
[31] = HEK293T cytotoxicity, dose response, cytotoxicity control for miR-122 modulator project, cell-based, activator set, cherry-pick (AID 720690); format: functional;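 also: HEK293T human cells scored for general mammalian cytotoxicity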

T7 sequence (Q8VNN2 whole entry): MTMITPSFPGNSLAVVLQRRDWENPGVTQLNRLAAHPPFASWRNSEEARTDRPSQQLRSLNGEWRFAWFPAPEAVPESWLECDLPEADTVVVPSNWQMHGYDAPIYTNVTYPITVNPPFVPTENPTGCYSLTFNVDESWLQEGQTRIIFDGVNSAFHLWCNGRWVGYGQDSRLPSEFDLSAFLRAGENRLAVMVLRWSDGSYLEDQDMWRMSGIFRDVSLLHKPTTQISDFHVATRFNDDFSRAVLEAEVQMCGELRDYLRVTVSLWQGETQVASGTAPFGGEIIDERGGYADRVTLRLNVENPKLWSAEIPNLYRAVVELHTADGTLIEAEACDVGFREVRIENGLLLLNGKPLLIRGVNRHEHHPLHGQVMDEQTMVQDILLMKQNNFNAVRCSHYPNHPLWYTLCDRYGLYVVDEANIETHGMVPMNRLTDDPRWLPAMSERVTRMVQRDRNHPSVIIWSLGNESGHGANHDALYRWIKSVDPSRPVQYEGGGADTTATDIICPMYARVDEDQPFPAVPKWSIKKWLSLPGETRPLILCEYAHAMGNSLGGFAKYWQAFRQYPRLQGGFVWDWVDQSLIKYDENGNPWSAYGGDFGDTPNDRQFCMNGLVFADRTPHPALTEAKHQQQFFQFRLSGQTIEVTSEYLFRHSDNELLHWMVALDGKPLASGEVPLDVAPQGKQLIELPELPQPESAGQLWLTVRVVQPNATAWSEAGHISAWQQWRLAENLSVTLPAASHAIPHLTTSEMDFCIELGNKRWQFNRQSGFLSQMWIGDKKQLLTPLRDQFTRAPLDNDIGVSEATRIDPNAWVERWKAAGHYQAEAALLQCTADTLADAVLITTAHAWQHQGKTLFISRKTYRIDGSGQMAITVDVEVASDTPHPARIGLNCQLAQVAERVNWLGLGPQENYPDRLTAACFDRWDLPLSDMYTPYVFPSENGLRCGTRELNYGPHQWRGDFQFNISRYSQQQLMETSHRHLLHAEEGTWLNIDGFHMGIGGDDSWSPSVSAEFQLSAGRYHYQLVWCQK
T6 sequence (P41145 whole entry): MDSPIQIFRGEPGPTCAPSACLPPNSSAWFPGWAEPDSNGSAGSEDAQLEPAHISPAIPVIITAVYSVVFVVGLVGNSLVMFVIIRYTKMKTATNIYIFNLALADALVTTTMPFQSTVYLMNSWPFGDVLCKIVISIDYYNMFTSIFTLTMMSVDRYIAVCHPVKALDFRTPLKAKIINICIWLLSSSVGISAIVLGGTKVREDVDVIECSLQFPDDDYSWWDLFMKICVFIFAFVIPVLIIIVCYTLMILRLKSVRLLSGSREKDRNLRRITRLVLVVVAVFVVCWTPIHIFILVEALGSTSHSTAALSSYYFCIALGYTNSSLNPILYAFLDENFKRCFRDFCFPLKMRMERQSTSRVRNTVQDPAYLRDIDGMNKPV
Chain of Nonstructural protein 1 (Q194T2 whole entry): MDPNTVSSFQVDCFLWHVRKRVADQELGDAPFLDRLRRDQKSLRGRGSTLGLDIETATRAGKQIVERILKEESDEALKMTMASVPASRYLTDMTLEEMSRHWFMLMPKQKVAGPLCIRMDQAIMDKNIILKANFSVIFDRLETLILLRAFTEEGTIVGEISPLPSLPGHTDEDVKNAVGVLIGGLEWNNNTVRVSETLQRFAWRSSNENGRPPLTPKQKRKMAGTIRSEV
Chain of Photoreceptor-specific nuclear receptor (Q9Y5X4 whole entry, the tested form may be a part): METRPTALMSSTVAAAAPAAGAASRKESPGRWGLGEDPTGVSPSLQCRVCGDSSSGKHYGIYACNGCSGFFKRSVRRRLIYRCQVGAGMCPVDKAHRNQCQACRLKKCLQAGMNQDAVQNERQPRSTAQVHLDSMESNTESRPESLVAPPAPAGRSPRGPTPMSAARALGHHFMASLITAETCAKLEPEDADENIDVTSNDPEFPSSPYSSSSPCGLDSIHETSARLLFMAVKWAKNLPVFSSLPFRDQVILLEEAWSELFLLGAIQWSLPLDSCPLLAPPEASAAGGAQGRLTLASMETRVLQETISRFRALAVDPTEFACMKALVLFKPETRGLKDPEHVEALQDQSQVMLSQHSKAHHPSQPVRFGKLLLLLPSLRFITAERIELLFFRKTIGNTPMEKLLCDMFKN
Chain of Tyrosyl-DNA phosphodiesterase 2 (O95551 whole entry): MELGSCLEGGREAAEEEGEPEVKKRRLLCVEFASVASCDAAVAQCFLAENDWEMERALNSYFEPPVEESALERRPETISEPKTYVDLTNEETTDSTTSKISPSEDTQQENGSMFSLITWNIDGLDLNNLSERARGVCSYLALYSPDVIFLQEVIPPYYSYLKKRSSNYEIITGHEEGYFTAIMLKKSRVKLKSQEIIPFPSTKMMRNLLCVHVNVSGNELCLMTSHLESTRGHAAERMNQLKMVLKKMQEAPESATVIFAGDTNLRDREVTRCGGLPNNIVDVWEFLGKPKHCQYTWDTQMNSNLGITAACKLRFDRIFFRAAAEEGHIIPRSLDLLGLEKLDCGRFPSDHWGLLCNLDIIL

O=C1OC(=O)/C(=C\NCCN2CCOCC2)C=C1Br
inactive: IC50 [1] 67 µM | IC50 [2] 61 µM

COc1ccc(NC2=C(N3CCN(C)CC3)C(=O)c3ccccc3C2=O)cc1
inactive: AC50 [3] > 70 µM
active: AC50 [4] 16.4 µM | AC50 [5] 24.9 µM

CC(=O)Nc1ccc(S(=O)(=O)NC2=C(N3CCN(c4ccc(F)cc4)CC3)C(=O)c3ccccc3C2=O)cc1
active: IC50 [6] 17.4 µM | AC50 [8] 4.98 µM | AC50 [9] 4.96 µM | EC50 [10] 10.4 µM
inactive: EC50 [7] > 260 µM | IC50 [11] > 128 µM

Cc1cccnc1Nc1nc(-c2ccccn2)cs1
inconclusive: EC50 [27] 15.3 µM | EC50 [28] 6.23 µM
inactive: EC50 [23] > 31.5 µM | EC50 [25] > 40 µM
> 32 µM: IC50 [26]
active: AC50 [12] 0.503 µM | IC50 [13] 2.24 µM | IC50 [14] 3.9 µM | EC50 [15] 1.1 µM | IC50 [16] 2.9 µM | EC50 [7] 3.33 µM | EC50 [17] 2.18 µM | IC50 [18] 2.83 µM | EC50 [19] 0.661 µM | AC50 [20] 4.65 µM | EC50 [21] 6.4 µM | EC50 [22] 3.13 µM | EC50 [24] 3.45 µM | AC50 [9] 0.29 µM | AC50 [29] 43.8 µM | EC50 [30] 1.46 µM | AC50 [31] 2.3 µM
